Experimental data as given in US20260209234A1, “SUBSTITUTED DIHYDROPYRROLO[3,4-D]PYRIMIDINE COMPOUNDS AND THEIR USE IN TREATING MEDICAL CONDITIONS” (Karuna Therapeutics, Inc., priority 2022, published 2026).

Legend:
human M4 receptor = molecular target: T1, human M4 receptor (Homo sapiens, UniProt P08173); test: M4 GTPγS PAM assay; assay type: biochemical; conditions: membranes of CHO-K1 cells stably expressing human M4; EC20 acetylcholine 40 nM; 35S-GTP
T1 construct: expressed in transfected cells
T1 sequence (P08173 1-479): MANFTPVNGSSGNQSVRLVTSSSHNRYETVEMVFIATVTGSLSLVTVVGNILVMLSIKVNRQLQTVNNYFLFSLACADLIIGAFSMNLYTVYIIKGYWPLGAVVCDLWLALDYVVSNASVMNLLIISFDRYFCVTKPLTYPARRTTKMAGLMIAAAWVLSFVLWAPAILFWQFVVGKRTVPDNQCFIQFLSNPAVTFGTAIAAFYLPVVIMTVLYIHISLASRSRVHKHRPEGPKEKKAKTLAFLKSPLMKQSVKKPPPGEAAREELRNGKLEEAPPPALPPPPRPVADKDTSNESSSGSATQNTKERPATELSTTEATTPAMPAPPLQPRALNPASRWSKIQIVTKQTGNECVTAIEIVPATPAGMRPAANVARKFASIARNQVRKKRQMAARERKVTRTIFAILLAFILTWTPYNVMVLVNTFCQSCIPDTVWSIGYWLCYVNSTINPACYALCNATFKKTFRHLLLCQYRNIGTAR
Experimental: The M4 GTPγS PAM method was used. Membranes were prepared for GTPgS binding assays from CHO-K1 cells stably expressing human M4 receptor. Briefly, cells were grown in 5-layer cell culture flasks. Cells were washed with 50 mL of PBS and then dissociated with 0.05% trypsin. Dissociated cells were then collected by centrifugation at 650×g for 8 minutes at 4° C. Pellets were washed again in PBS by centrifugation and resuspended in 30 mL of 20 mM HEPES, 10 mM EDTA, pH 7.4. After sitting on ice for 30 min, membranes were collected by centrifugation at 50000×g for 15′ at 4° C., resuspended in 30 mL of 20 mM HEPES, 0.1 mM EDTA, pH 7.4 and collected again by centrifugation. Pellets were then washed twice by centrifugation in 30 mL of 20 mM HEPES, pH 7.4, and stored at −80° C. until the day of the assay. On the day of the assay, pellets were thawed on ice and resuspended in 1 mL of 20 mM HEPES, pH 7.4, 10 mM MgCl2, 100 mM NaCl using dounce homogenization. Membrane protein concentration is determined by BCA protein assay (Promega, Madison, WI) according to Promega guidelines.
On the day of the assay, serial dilutions of test PAM compounds were brought up in assay buffer (20 mM HEPES, 10 mM MgCl2, 100 mM NaCl) at 4× final assay concentration. […] of membrane homogenates (containing […] of membrane protein) were prepared in assay buffer supplemented with GDP at 4× final assay concentration (final assay concentration of GDP is 5 μM for M2 and 0.1 μM for M4) and dispensed into 96 well polypropylene, U-bottom Greiner plates. […] of vehicle or test PAM compound at 4× of final assay concentration diluted in the assay buffer were added to membrane and plates are incubated for 10-15 minutes at room temperature with gentle shaking. Then, […] of EC20 acetylcholine in assay buffer at 4× final assay concentration was added to assay plates (EC20 final assay concentrations was 40 nM for human M4).
Plates were then incubated, with shaking, for an additional 10-15 minutes. […] of 0.4 nM 35S-GTP (Perkin Elmer, Waltham, MA) in assay buffer was added to assay mixtures. The binding reaction is left on the shaker for 1 hour at room temperature. Membranes in assay reactions were then transferred to GF/C filter plates (Unifilter, Perkin Elmer) and washed three times using a FilterMate Harvester (Perkin Elmer) with cold assay buffer containing no GDP. Filter plates were then dried at 40° C. overnight followed by the addition of […] of Beta Plate Scintillation liquid. Plates are top and bottom sealed before being read on TopCount scintillation counter (Perkin Elmer, Waltham, MA).

rM4 receptors = molecular target: T2, rM4 receptors (Rattus norvegicus, UniProt P08485); test: Rat M4 PAM pERK assay; assay type: cell-based; conditions: CHO cells expressing rM4; EC20 of acetylcholine (10 nM final); TR-FRET
T2 construct: expressed in transfected cells; host or cells: CHO cells
T2 sequence (P08485 1-478): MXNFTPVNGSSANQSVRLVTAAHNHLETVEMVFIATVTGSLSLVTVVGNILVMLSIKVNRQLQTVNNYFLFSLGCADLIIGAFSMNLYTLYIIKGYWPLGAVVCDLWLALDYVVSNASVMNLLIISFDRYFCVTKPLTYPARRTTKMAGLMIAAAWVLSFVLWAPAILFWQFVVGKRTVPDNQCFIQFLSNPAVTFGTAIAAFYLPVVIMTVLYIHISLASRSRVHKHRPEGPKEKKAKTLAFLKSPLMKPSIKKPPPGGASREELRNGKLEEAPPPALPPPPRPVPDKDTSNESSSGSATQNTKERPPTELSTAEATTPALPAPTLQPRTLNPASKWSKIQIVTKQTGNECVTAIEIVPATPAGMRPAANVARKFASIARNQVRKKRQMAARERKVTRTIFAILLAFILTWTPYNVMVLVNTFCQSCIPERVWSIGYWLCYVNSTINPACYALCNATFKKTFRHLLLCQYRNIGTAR
Experimental: (§1) Chinese hamster ovary (CHO) cells expressing either hM4 or rM4 receptors were frozen in assay ready vials (5×10^6 cells/vial) after bulking-up in culture. The day before an assay, vial(s) were thawed and cells seeded in 384 well white proxiplates at 1000/well for hM4 cells and at 2000/well for rM4 cells, in 10 μL of growth media (Hams/F12 with glutamax and 10% FCS) and incubated overnight at 37° C./5% CO2.
(§2) On the following morning, the growth media was removed by ‘flicking out’ over a bin, patting the inverted plate onto tissue, and then replacing with 10 μL of wash media (Hams/F12 with glutamax and 8 mM HEPES, NB: serum free). Then, the wash media was removed in the same way and replaced with 8 μL/well of the serum free media. Plates were then re-incubated for a further 4 hours at 37° C./5% CO2.
(§3) Compounds for testing were solubilized to 10 mM in DMSO and compound addition plates, consisting of ten-point concentration response curves (CRC) in duplicate points (10 μM top concentration, 1/2 log dilution series), were prepared by acoustic dispensing and the compound management group.
(§4) After the 4-hour incubation in serum free media, a 4 μL aliquot of the 3× compound solution containing an EC20 of acetylcholine (10 nM final concentration) was added to the cell plate using a 384 well plate to plate transfer. Then, the plate lid was replaced, and the cells incubated for 5 mins at 37° C./5% CO2. Following this final incubation, all cellular processes were stopped by the addition of 4 μL/well of lysis and blocking buffer and plates were incubated for 30 minutes at RT on an orbital shaker (gentle setting). Then, a final addition of 4 μL/well of antibody detection mix, containing both the Europium-Cryptate (donor) and d2 (acceptor) tagged detection components, was added followed by a further 2-hour incubation at RT, and then the plate was read using a TR-FRET (time resolved fluorescence resonance energy transfer) based protocol.

hM4 receptors = molecular target: T3, hM4 receptors (Homo sapiens, UniProt P08173); test: Human M4 PAM pERK assay; assay type: cell-based; conditions: CHO cells expressing hM4; EC20 of acetylcholine (10 nM final); TR-FRET
T3 construct: expressed in transfected cells; host or cells: CHO cells
T3 sequence (P08173 1-479): T1 sequence (P08173 1-479)
Experimental: as §1, §2, §3, §4

Row | Structure (SMILES) | EC50 (human M4 receptor) [nM] | EC50 (rM4 receptors) [nM] | EC50 (hM4 receptors) [nM]
1 | COc1nc(C#N)nc2c1C(C)N(C(=O)CC1CN(c3cccc(F)c3F)C1)C2 (single isomer, unassigned) [Compound I-19, 6-(2-(1-(2,3-Difluorophenyl)azetidin-3-yl)acetyl)-4-methoxy-5-methyl-6,7-dihydro-5H-pyrrolo[3,4-d]pyrimidine-2-carbonitrile] | 100 to 500 | 100 to 500 | 100 to 500
2 | COc1nc(C#N)nc2c1C(C)N(C(=O)CC1CN(c3cccc(F)c3F)C1)C2 (single isomer, unassigned) [Compound I-20, 6-(2-(1-(2,3-Difluorophenyl)azetidin-3-yl)acetyl)-4-methoxy-5-methyl-6,7-dihydro-5H-pyrrolo[3,4-d]pyrimidine-2-carbonitrile] | ≥ 2000 | ≥ 2000 | ≥ 2000
3 | COc1nc(C#N)nc2c1C(C)N(C(=O)CC1CN(c3ccc(C4CC4)c(F)c3)C1)C2 (single isomer, unassigned) [Compound I-21, 6-(2-(1-(4-Cyclopropyl-3-fluorophenyl)azetidin-3-yl)acetyl)-4-methoxy-5-methyl-6,7-dihydro-5H-pyrrolo[3,4-d]pyrimidine-2-carbonitrile] | ≥ 2000 | ≥ 2000 | ≥ 2000
4 | COc1nc(C#N)nc2c1C(C)N(C(=O)CC1CN(c3ccc(C4CC4)c(F)c3)C1)C2 (single isomer, unassigned) [Compound I-22, 6-(2-(1-(4-Cyclopropyl-3-fluorophenyl)azetidin-3-yl)acetyl)-4-methoxy-5-methyl-6,7-dihydro-5H-pyrrolo[3,4-d]pyrimidine-2-carbonitrile] | 100 to 500 | 100 to 500 | 100 to 500
5 | COc1nc(C#N)nc2c1C(C)N(C(=O)CC1CN(c3ccc(C#N)cc3)C1)C2 (single isomer, unassigned) [Compound I-23, 6-(2-(1-(4-Cyanophenyl)azetidin-3-yl)acetyl)-4-methoxy-5-methyl-6,7-dihydro-5H-pyrrolo[3,4-d]pyrimidine-2-carbonitrile] | ≤ 100 | 100 to 500 | ≤ 100
6 | COc1nc(C#N)nc2c1C(C)N(C(=O)CC1CN(c3cnnc(C(F)(F)F)c3)C1)C2 (single isomer, unassigned) [Compound I-24, 4-Methoxy-5-methyl-6-(2-(1-(6-(trifluoromethyl)pyridazin-4-yl)azetidin-3-yl)acetyl)-6,7-dihydro-5H-pyrrolo[3,4-d]pyrimidine-2-carbonitrile] | ≥ 2000 | ≥ 2000 | ≥ 2000
7 | COc1nc(C#N)nc2c1C(C)N(C(=O)CC1CN(c3cnnc(C(F)(F)F)c3)C1)C2 (single isomer, unassigned) [Compound I-25, 4-Methoxy-5-methyl-6-(2-(1-(6-(trifluoromethyl)pyridazin-4-yl)azetidin-3-yl)acetyl)-6,7-dihydro-5H-pyrrolo[3,4-d]pyrimidine-2-carbonitrile] | 100 to 500 | 500 to 2000 | 100 to 500
8 | COc1nc(C#N)nc2c1C(C)N(C(=O)CC1CN(c3cncnc3)C1)C2 (single isomer, unassigned) [Compound I-27, 4-Methoxy-5-methyl-6-(2-(1-(pyrimidin-5-yl)azetidin-3-yl)acetyl)-6,7-dihydro-5H-pyrrolo[3,4-d]pyrimidine-2-carbonitrile] | ≥ 2000 | 500 to 2000 | ≤ 100
9 | COc1nc(C#N)nc2c1C(C)N(C(=O)CC1CN(c3ccnc(OC(F)F)c3)C1)C2 (single isomer, unassigned) [Compound I-28, 6-(2-(1-(2-(Difluoromethoxy)pyridin-4-yl)azetidin-3-yl)acetyl)-4-methoxy-5-methyl-6,7-dihydro-5H-pyrrolo[3,4-d]pyrimidine-2-carbonitrile] | ≤ 100 | 100 to 500 | ≤ 100
10 | COc1nc(C#N)nc2c1C(C)N(C(=O)CC1CN(c3ccncc3F)C1)C2 (single isomer, unassigned) [Compound I-29, 6-(2-(1-(3-Fluoropyridin-4-yl)azetidin-3-yl)acetyl)-4-methoxy-5-methyl-6,7-dihydro-5H-pyrrolo[3,4-d]pyrimidine-2-carbonitrile] | 100 to 500 | 500 to 2000 | 100 to 500
11 | COc1nc(C#N)nc2c1C(C)N(C(=O)CC1CN(c3ccnc(C(C)(C)O)c3)C1)C2 (single isomer, unassigned) [Compound I-30, 6-(2-(1-(2-(2-Hydroxypropan-2-yl)pyridin-4-yl)azetidin-3-yl)acetyl)-4-methoxy-5-methyl-6,7-dihydro-5H-pyrrolo[3,4-d]pyrimidine-2-carbonitrile] | 100 to 500 | 100 to 500 | ≤ 100
12 | COc1nc(C#N)nc2c1C(C)N(C(=O)CC1CN(c3ccc(C4CC4)nc3)C1)C2 (single isomer, unassigned) [Compound I-32, 6-(2-(1-(6-Cyclopropylpyridin-3-yl)azetidin-3-yl)acetyl)-4-methoxy-5-methyl-6,7-dihydro-5H-pyrrolo[3,4-d]pyrimidine-2-carbonitrile] | ≥ 2000 | ≥ 2000 | ≥ 2000
